Source: patent publication US9527885B2, “Hepatitis C virus inhibitors” (BRISTOL-MYERS SQUIBB COMPANY, priority 2011, dated 2016)
Read-outs that look alike come from different tables or passages of the source.

Tests used:
[1] = test system: HCV genotype 1a (H77 strain) replicon in HUH-7 cells; assay: HCV replicon luciferase reporter assay, genotype 1a; format: cell-based; settings: Hepatitis C virus, Huh-7, 72 h, 3 days incubation, read-out: LE_1a (EC50, range)
Description: (§1) An HCV replicon whole cell system was established as described by Lohmann V, Korner F, Koch J, Herian U, Theilmann L, Bartenschlager R., Science 285(5424):110-3 (1999) and modified to introduce a luciferase reporter, as first described by Krieger et al (Krieger N, Lohmann V, and Bartenschlager R, J. Virol. 75(10):4614-4624 (2001)). CDNA encoding a humanized form of the Renilla luciferase gene and a linker sequence fused directly to the 3′-end of the luciferase gene were introduced into the replicon construct using an Asc1 restriction site located in core, directly upstream of the neomycin marker gene. The adaptive mutation at position 1179 (serine to isoleucine) was also introduced (Blight K J, Kolykhalov, A A, Rice, C M, Science 290(5498):1972-1974). A stable cell line constitutively expressing this HCV replicon construct was generated by first linearizing plasmid DNAs with ScaI. RNA transcripts were synthesized in vitro using the T7 MegaScript transcription kit (Ambion, Austin, Tex.) according to manufacturer's directions. In vitro transcripts of the cDNA were transfected into the human hepatoma cell line, HUH-7. […] Resulting cell lines were characterized for positive and negative strand RNA production and protein production over time.
A stable HCV replicon luciferase reporter cell line representing the genotype 1a H77 strain (Yanagi M, Purcell R H, Emerson S U, et al. Transcripts from a single full-length cDNA clone of hepatitis C virus are infectious when directly transfected into the liver of a chimpanzee. Proc Natl Acad Sci USA 1997; 94(16):8738-8743) was generated as described previously for the genotype 1b (Con1) replicon luciferase cell line. The replicon construct was modified by introducing mutations were introduced into the genes encoding the NS3 helicase domain (proline replaced by leucine at position 1496) and NS5A (serine to isoleucine at position 2204) to improve replication in cell culture.
(§2) HCV replicon luciferase assays were developed to monitor the inhibitory effects of compounds described in the disclosure on HCV genotypes 1a and 1b viral replication. HUH-7 cells, constitutively expressing the HCV replicon, were grown in Dulbecco's Modified Eagle Media (DMEM) (Gibco-BRL) containing 10% Fetal calf serum (FCS) (Sigma) and 1 mg/mL G418 (Gibco-BRL). Compounds were serially diluted 3 folds in DMSO for a twenty-point titration and subsequently transferred to sterile 384-well tissue-culture treated plates (Corning cat #3571). The plates were then seeded with 50 μL of cells at a density of 3.0×10^3 cells/well in DMEM containing 4% FCS (final DMSO concentration at 0.5%). After 3 days incubation at 37° C., cells were analyzed for Renilla Luciferase activity using the EnduRen as substrate (Promega cat #E6485). The EnduRen substrate was diluted in DMEM and then added to the plates to a final concentration of 7.5 μM. The plates were incubated for 2 hrs at 37° C. and then read immediately for 30 seconds with Viewlux Imager (PerkinElmer) using a luminescence program. To assess cytotoxicity of compounds, CC50 values were generated by multiplexing the EnduRen-containing plates with Cell Titer-Blue (Promega, cat # G8082). Cell-Titer Blue (3 μL) was added to each well and incubated for 8 hrs at 37° C. The fluorescence signal from each well was read, with an excitation wavelength at 525/10 nm and an emission wavelength of 598/10 nm, using the Viewlux Imager.
(§3) The EC50 values for compounds were calculated by using a four-parameter logistic equation: y=A+((B−A)/(1+((C/x)^D))), where A and B denotes minimal and maximal % inhibition, respectively, C is the EC50, D is the hill slope and x represents compound concentration.

[2] = test system: HCV genotype 1b (Con1) replicon in HUH-7 cells; assay: HCV replicon luciferase reporter assay, genotype 1b; format: cell-based; settings: Hepatitis C virus, 72 h, 3 days incubation, read-out: LE_1b (EC50, range)
Description: as §1, with “time. […]” for “time.”
as §2, §3

[3] = HCV genotype 1a replicon luciferase, class symbols
[4] = HCV genotype 1b replicon luciferase, class symbols
[5] = HCV genotype 1a replicon luciferase, range class
[6] = HCV genotype 1b replicon luciferase, range class

Row | Compound | EC50 [1, 3] [nM] | EC50 [2, 4] [nM] | EC50 [1, 5] [nM] | EC50 [2, 6] [nM] | further results
1 | C[C@@H]1CC/C=C\[C@@H]2C[C@@]2(C(=O)NS(=O)(=O)C2(C)CC2)NC(=O)[C@@H]2C[C@@H](Oc3nccc4c(N5CCOCC5)cccc34)CN2C(=O)[C@@H](NC(=O)OC(C)(C)C(F)(F)F)[C@H](C)C1 [Compound 5124, 1,1,1-trifluoro-2-methylpropan-2-yl ((2R,6S,7R,9R,13aS,14aR,16aS,Z)-7,9-dimethyl-14a-(((1-methylcyclopropyl)sulfonyl)carbamoyl)-2-((5-morpholinoisoquinolin-1-yl)oxy)-5,16-dioxo-1,2,3,5,6,7,8,9,10,11,13a,14,14a,15,16,16a-hexadecahydrocyclopropa[e]pyrrolo[1,2-a][1,4]diazacyclopentadecin-6-yl)carbamate] | < 5.46 | < 5.46 |  |  | 
2 | CCOc1ccc2c(O[C@@H]3C[C@H]4C(=O)N[C@]5(C(=O)NS(=O)(=O)C6CC6)C[C@H]5/C=C\CC[C@@H](C)C[C@@H](C)[C@H](NC(=O)O[C@@H]5C[C@@H]6C[C@@H]6C5)C(=O)N4C3)nccc2c1 [Compound 5132, (1R,3r,5S)-bicyclo[3.1.0]hexan-3-yl ((2R,6S,7R,9R,13aS,14aR,16aS,Z)-14a-((cyclopropylsulfonyl)carbamoyl)-2-((6-ethoxyisoquinolin-1-yl)oxy)-7,9-dimethyl-5,16-dioxo-1,2,3,5,6,7,8,9,10,11,13a,14,14a,15,16,16a-hexadecahydrocyclopropa[e]pyrrolo[1,2-a][1,4]diazacyclopentadecin-6-yl)carbamate] | < 5.46 | < 5.46 |  |  | 
3 | COCCOc1cc2c(Cl)cccc2c(O[C@@H]2C[C@H]3C(=O)N[C@]4(C(=O)NS(=O)(=O)C5(C)CC5)C[C@H]4/C=C\CC[C@@H](C)C[C@@H](C)[C@H](NC(=O)OC(C)(C)C(F)(F)F)C(=O)N3C2)n1 [Compound 1114, 1,1,1-trifluoro-2-methylpropan-2-yl ((2R,6S,7R,9R,13aS,14aR,16aS,Z)-2-((5-chloro-3-(2-methoxyethoxyl)isoquinolin-1-yl)oxy)-7,9-dimethyl-14a-(((1-methylcyclopropyl)sulfonyl)carbamoyl)-5,16-dioxo-1,2,3,5,6,7,8,9,10,11,13a,14,14a,15,16,16a-hexadecahydrocyclopropa[e]pyrrolo[1,2-a][1,4]diazacyclopentadecin-6-yl)carbamate] |  |  |  |  | EC50 ([1]; HCV genotype 1a replicon luciferase reporter, range class): < 5.46 nM; EC50 ([2]; HCV genotype 1b replicon luciferase reporter, range class): < 5.46 nM
4 | CC[C@@H]1C[C@H](C)CC/C=C\[C@@H]2C[C@@]2(C(=O)NS(=O)(=O)C2(C)CC2)NC(=O)[C@@H]2C[C@@H](Oc3nccc4cc(OC)c(F)cc34)CN2C(=O)[C@H]1NC(=O)OC(C)(C)C(F)(F)F [Compound 4176, 1,1,1-trifluoro-2-methylpropan-2-yl (2R,6S,7R,9R,13aS,14aR,16aS,Z)-7-ethyl-2-(7-fluoro-6-methoxyisoquinolin-1-yloxy)-9-methyl-14a-(1-methylcyclopropylsulfonylcarbamoyl)-5,16-dioxo-1,2,3,5,6,7,8,9,10,11,13a,14,14a,15,16,16a-hexadecahydrocyclopropa[e]pyrrolo[1,2-a][1,4]diazacyclopentadecin-6-ylcarbamate] | < 5.46 | < 5.46 |  |  | 
5 | CCOc1ccc2c(O[C@@H]3C[C@H]4C(=O)N[C@]5(C(=O)NS(=O)(=O)C6CC6)C[C@H]5/C=C\CC[C@H](C)C[C@@H](C)[C@H](NC(=O)O[C@@H]5C[C@@H]6C[C@@H]6C5)C(=O)N4C3)nccc2c1 [Compound 5131, (1R,3r,5S)-bicyclo[3.1.0]hexan-3-yl ((2R,6S,7R,9S,13aS,14aR,16aS,Z)-14a-((cyclopropylsulfonyl)carbamoyl)-2-((6-ethoxyisoquinolin-1-yl)oxy)-7,9-dimethyl-5,16-dioxo-1,2,3,5,6,7,8,9,10,11,13a,14,14a,15,16,16a-hexadecahydrocyclopropa[e]pyrrolo[1,2-a][1,4]diazacyclopentadecin-6-yl)carbamate] | < 5.46 | < 5.46 |  |  | 
6 | COc1ccc2c(O[C@@H]3C[C@H]4C(=O)N[C@]5(C(=O)NS(=O)(=O)C6(C)CC6)C[C@H]5/C=C\CC[C@@H](C)C[C@@H](C)[C@H](NC(=O)O[C@@H]5C[C@@H]6C[C@@H]6C5)C(=O)N4C3)nc(-c3ccc(OC(C)C)nc3)cc2c1 [Compound 5229, (1R,3r,5S)-bicyclo[3.1.0]hexan-3-yl ((2R,6S,7R,9R,13aS,14aR,16aS,Z)-2-((3-(6-isopropoxypyridin-3-yl)-6-methoxyisoquinolin-1-yl)oxy)-7,9-dimethyl-14a-(((1-methylcyclopropyl)sulfonyl)carbamoyl)-5,16-dioxo-1,2,3,5,6,7,8,9,10,11,13a,14,14a,15,16,16a-hexadecahydrocyclopropa[e]pyrrolo[1,2-a][1,4]diazacyclopentadecin-6-yl)carbamate] |  |  | < 5.46 | < 5.46 | 
7 | C[C@@H]1CC/C=C\[C@@H]2C[C@@]2(C(=O)NS(=O)(=O)C2(CF)CC2)NC(=O)[C@@H]2C[C@@H](Oc3nccc4c5c(ccc34)OCCO5)CN2C(=O)[C@@H](NC(=O)OC(C)(C)C)[C@H](C)C1 [Compound 5321, tert-butyl ((2R,6S,7R,9R,13aS,14aR,16aS,Z)-2-((2,3-dihydro-[1,4]dioxino[2,3-f]isoquinolin-7-yl)oxy)-14a-(((1-(fluoromethyl)cyclopropyl)sulfonyl)carbamoyl)-7,9-dimethyl-5,16-dioxo-1,2,3,5,6,7,8,9,10,11,13a,14,14a,15,16,16a-hexadecahydrocyclopropa[e]pyrrolo[1,2-a][1,4]diazacyclopentadecin-6-yl)carbamate] |  |  | < 5.46 | < 5.46 | 
8 | [2H]C([2H])([2H])C(OC(=O)N[C@@H]1C(=O)N2C[C@H](Oc3nccc4cc(OC)ccc34)C[C@H]2C(=O)N[C@]2(C(=O)NS(=O)(=O)C3(C)CC3)C[C@H]2/C=C\CC[C@H](C)C[C@H]1C)(C([2H])([2H])[2H])C(F)(F)F [Compound 5174, 1,1,1,3,3,3-hexadeutero-2-(trifluoromethyl)propan-2-yl ((2R,6S,7R,9S,13aS,14aR,16aS,Z)-2-((6-methoxyisoquinolin-1-yl)oxy)-7,9-dimethyl-14a-(((1-methylcyclopropyl)sulfonyl)carbamoyl)-5,16-dioxo-1,2,3,5,6,7,8,9,10,11,13a,14,14a,15,16,16a-hexadecahydrocyclopropa[e]pyrrolo[1,2-a][1,4]diazacyclopentadecin-6-yl)carbamate] |  |  | < 5.46 | < 5.46 | 
